According to BindingDB's records for doi:10.7270/Q2GH9GBT (Nmmlsc, 2008):

These molecules were tested against T1, Bcl-2-like protein 10 [11-204] (Homo sapiens, UniProt Q9HD36) (assay: regulators of Bim-Bcl-B binding, dose response, biochemical, multiplexed, bead-based flow cytometry, human (AID 1327)). Details: not given.
T1 construct: 11-204
T1 sequence (Q9HD36 whole entry): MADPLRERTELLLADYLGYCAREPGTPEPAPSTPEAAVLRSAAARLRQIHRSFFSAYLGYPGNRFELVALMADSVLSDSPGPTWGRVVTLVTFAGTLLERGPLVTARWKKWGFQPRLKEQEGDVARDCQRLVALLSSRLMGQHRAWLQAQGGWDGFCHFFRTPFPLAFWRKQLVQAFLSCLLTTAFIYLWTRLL

EC50 [µM]	SMILES
9.23	Cc1ccc(C=NNC(=O)CSc2nnc(-c3ccc(Cl)cc3)n2-c2ccccc2)o1 [SMR000218122]
35.7	Clc1nc2ccccc2cc1CN=Nc1nc2ccccc2[nH]1 [SMR000221568]

Same assay, conditions: inactive by the depositor's call

SMILES	EC50 [µM]
COc1ccc(OC)c(-n2c(=O)c3ccccc3c3ccccc3c2=O)c1 [SMR000236434]	16.4
Nc1c(C(=O)NCC2CCCO2)sc2nc3c(c(-c4ccco4)c12)CC/C3=C\c1ccco1 (centres undefined) [SMR000259502]	13.7
CCOC(=O)c1nc(Nc2ccc(C(=O)OC)cc2)c2ccccc2n1 [ethyl 4-(4-methoxycarbonylanilino)quinazoline-2-carboxylate]	11.2

Continued, values first:

EC50 [µM]	SMILES
10.4	Nc1c(C(=O)NC2CC2)sc2nc3c(c(-c4ccco4)c12)CC/C3=C/c1ccco1 [SMR000259554]
3.53	Cc1nnc2ccc(-c3cccc(NC(=O)c4ccco4)c3)nn12 [SMR000324305]
1.11	O=C(Nc1cccc(Cl)c1)Nc1ccnc(-c2cccnc2)n1 [SMR000337179]
1.82	CN(N=Cc1ccncc1)C1=NS(=O)(=O)c2ccccc21 [isonicotinaldehyde (1,1-dioxido-1,2-benzisothiazol-3-yl)(methyl)hydrazone]
